Assays:
[1] = tested on: double-stranded DNA (dsDNA); assay: Thermal transition (Tm) of double-stranded DNA; assay type: binding; conditions: compound 11 at 200 μM; data not shown
Method: The Tm of dsDNA with an excess amount of compound 11 (200 μM) was measured using a spectrophotometer equipped with a thermoelectric cell holder.

[2] = molecular target: T1, E. coli DNA polymerase I (Klenow fragment) (Escherichia coli, UniProt P00582); assay: DNA polymerase assay, Klenow fragment; assay type: biochemical
T1 construct: The Klenow fragment of pol I from E. coli; purchased Worthington Biochemical Corp. (Freehold, NJ, USA)
T1 sequence (P00582 324-928): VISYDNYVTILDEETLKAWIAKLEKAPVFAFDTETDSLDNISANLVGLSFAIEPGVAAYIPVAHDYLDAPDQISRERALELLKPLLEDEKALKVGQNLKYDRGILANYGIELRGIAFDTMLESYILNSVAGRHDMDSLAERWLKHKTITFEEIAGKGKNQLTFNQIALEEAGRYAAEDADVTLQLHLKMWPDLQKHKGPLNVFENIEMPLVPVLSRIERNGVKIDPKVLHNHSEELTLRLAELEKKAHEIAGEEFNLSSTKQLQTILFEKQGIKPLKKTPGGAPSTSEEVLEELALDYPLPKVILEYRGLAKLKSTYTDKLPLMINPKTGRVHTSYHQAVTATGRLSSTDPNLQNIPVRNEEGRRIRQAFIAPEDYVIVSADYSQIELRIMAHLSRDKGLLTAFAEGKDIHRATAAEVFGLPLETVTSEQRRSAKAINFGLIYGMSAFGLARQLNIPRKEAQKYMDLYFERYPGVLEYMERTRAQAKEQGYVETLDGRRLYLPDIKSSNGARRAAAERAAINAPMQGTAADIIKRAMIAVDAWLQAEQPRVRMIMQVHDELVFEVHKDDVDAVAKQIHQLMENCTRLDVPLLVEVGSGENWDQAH
Source text: (§1) Pol α was purified from calf thymus by immuno-affinity column chromatography as described by Tamai et al.. Recombinant rat pol β was purified from E. coli JMpβ5 as described by Date et al.. The human pol γ catalytic gene was cloned into pFastBac. Histidine-tagged enzyme was expressed using the BAC-TO-BAC HT Baculovirus Expression System according to the supplier's manual (LIFE TECHNOLOGIES, MD, USA) and purified using ProBoundresin (Invitrogen Japan, Tokyo, Japan). Human pols δ and ε were purified by the nuclear fractionation of human peripheral blood cancer cells (Molt-4) using the second subunit of pols δ and ε-conjugated affinity column chromatography, respectively. Recombinant human pols η and ι tagged with His6 at their C-terminal were expressed in SF9 insect cells using the baculovirus expression system, and were purified as described previously. A truncated form of pol κ (i.e., hDINB1DC) with 6 x His-tags attached at the C-terminal was overproduced using the BAC-to-BAC Baculovirus Expression System kit (GIBCO BRL, MD, USA) and purified as described previously. […]
(§2) For pols, poly(dA)/oligo(dT)12-18 (A/T = 2/1) and dTTP were used as the DNA template-primer and nucleotide (i.e., dNTP) substrate, respectively. […] Activity without the inhibitor was considered 100%, and the remaining activity at each concentration of the inhibitor was determined relative to this value. […]

[3] = molecular target: T2, Bovine Deoxyribonuclease I (Bos taurus, UniProt P00639); assay: Deoxyribonuclease I assay; assay type: biochemical
T2 construct: Bovine pancreas deoxyribonuclease I (DNase I) was obtained from Stratagene Cloning Systems; purchased Stratagene Cloning Systems (La Jolla, CA, USA); host or cells: bovine pancreas
T2 sequence (P00639 23-282): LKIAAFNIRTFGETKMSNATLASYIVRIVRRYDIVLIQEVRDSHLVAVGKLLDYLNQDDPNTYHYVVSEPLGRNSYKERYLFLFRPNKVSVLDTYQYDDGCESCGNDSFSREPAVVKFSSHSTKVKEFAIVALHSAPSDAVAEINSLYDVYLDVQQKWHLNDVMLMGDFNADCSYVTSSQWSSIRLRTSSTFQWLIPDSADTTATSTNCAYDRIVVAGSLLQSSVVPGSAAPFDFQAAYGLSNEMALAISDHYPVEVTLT
Source text: as §1
The primase activity of calf pol α, the activities of T7 RNA polymerase, T4 polynucleotide kinase and bovine DNase I were measured in standard assays according to the manufacturer's specifications as described by Tamiya-Koizumi et al., Nakayama et al., Soltis et al., and Lu and Sakaguchi, respectively.

Human DNA polymerase κ = molecular target: T3, Human DNA polymerase κ (Homo sapiens, UniProt Q9UBT6); assay: DNA polymerase assay, human pol κ; assay type: biochemical
T3 construct: A truncated form of pol κ (i.e., hDINB1DC); 6xHis (C); made in house; host or cells: baculovirus expression system (insect cells)
T3 sequence (Q9UBT6 1-560 limits assumed): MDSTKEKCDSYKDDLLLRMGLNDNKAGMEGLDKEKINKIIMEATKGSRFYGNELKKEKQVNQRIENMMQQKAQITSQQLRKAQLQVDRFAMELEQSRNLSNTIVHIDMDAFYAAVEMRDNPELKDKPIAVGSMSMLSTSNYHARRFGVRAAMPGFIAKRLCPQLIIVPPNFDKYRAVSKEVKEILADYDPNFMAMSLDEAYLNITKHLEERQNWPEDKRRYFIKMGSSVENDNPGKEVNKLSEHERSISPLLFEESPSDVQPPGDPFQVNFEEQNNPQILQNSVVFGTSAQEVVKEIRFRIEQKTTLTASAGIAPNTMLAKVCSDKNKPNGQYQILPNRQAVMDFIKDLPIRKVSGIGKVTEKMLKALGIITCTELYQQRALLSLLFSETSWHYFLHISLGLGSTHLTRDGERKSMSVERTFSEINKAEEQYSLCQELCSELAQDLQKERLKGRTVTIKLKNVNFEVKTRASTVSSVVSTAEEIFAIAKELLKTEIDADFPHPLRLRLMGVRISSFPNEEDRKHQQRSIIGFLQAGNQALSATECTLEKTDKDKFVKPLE
Source text: as §1, §2

Calf DNA polymerase α = Calf DNA polymerase α (Bos taurus, UniProt A0AAA9THK8); assay: DNA polymerase assay, calf pol α; assay type: biochemical
Sequence of Calf DNA polymerase α (Q58D13 whole entry): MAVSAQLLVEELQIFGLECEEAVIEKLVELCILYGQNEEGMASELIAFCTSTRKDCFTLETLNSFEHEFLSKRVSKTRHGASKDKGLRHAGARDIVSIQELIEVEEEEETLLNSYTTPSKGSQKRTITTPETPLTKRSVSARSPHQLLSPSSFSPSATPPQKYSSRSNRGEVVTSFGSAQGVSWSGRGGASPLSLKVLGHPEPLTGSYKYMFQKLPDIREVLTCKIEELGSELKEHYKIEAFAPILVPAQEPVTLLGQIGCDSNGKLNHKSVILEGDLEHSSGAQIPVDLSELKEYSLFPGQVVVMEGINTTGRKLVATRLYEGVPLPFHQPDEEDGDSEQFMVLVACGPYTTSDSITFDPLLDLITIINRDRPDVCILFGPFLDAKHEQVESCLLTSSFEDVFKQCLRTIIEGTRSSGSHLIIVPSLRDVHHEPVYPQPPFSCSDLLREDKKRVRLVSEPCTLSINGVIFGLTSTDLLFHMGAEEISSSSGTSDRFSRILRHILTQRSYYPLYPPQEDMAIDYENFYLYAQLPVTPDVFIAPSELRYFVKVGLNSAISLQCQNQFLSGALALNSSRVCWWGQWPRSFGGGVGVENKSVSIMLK
Sequence of Calf DNA polymerase α (A0AAA9THK8 entry or part of it): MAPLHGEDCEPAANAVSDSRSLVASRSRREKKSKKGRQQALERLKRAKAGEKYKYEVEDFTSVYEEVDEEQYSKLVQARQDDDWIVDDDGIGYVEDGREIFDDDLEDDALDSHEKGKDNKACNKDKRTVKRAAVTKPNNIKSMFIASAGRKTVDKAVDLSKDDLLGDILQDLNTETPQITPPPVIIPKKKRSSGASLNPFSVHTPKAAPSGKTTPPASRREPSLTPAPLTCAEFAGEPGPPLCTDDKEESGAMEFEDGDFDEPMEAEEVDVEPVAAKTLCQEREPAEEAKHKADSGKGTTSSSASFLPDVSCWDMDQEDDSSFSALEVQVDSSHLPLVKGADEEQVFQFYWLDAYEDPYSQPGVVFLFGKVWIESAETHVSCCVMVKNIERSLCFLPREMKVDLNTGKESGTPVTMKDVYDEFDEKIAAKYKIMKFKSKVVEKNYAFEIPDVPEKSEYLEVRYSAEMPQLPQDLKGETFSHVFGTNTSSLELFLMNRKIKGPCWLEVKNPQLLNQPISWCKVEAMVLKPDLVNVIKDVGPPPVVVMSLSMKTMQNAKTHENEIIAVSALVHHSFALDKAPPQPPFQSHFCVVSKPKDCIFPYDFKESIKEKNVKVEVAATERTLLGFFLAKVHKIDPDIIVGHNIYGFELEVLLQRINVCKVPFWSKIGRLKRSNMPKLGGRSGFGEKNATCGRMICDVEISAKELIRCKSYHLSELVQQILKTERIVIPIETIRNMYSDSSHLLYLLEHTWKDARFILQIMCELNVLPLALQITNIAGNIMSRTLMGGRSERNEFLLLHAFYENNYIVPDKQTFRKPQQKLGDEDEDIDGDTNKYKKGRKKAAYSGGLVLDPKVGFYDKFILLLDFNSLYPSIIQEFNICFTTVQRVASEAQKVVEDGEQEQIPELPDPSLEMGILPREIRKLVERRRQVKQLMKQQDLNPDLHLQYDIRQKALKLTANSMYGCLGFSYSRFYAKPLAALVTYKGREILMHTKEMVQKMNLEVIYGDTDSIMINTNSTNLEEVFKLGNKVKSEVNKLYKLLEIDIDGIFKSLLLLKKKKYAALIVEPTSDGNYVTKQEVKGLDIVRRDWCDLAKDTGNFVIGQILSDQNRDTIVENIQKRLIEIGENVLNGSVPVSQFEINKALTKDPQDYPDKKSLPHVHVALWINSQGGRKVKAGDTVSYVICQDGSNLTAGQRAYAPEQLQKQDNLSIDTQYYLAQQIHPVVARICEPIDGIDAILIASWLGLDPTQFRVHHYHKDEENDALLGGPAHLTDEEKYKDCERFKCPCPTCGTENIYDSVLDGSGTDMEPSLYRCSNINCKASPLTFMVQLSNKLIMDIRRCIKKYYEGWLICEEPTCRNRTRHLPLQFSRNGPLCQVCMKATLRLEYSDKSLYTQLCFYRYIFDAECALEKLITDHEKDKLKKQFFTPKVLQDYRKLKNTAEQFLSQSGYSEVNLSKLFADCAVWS
Sequence of Calf DNA polymerase α (A0JNF4 entry or part of it, further chain): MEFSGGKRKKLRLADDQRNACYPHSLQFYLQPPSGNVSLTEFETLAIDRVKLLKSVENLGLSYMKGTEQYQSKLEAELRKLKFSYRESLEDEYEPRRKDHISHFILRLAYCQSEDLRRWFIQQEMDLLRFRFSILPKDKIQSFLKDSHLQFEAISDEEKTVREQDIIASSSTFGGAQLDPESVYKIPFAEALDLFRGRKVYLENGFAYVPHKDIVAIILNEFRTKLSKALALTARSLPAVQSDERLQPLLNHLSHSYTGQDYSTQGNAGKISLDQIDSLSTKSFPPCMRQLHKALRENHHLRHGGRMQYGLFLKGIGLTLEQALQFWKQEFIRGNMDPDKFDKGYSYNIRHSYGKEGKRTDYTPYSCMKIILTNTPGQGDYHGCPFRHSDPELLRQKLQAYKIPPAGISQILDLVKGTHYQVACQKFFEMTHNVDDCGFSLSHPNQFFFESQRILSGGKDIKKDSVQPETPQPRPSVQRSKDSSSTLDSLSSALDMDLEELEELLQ
Sequence of Calf DNA polymerase α (A0A3Q1MF00 entry or part of it, further chain): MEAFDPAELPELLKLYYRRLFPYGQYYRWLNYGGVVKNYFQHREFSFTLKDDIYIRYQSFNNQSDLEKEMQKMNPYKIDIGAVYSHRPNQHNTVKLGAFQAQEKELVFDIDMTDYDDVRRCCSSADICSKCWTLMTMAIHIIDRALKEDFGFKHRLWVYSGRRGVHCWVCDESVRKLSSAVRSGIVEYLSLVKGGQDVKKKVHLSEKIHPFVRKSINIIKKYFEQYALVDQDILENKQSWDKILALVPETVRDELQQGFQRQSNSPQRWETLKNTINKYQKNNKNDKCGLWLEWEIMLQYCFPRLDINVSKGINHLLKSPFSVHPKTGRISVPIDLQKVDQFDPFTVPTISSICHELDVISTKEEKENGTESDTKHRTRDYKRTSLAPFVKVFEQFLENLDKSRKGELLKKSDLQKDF
Source text: Pol α was purified from calf thymus by immuno-affinity column chromatography as described by Tamai et al.. Recombinant rat pol β was purified from E. coli JMpβ5 as described by Date et al.. The human pol γ catalytic gene was cloned into pFastBac. Histidine-tagged enzyme was expressed using the BAC-TO-BAC HT Baculovirus Expression System according to the supplier's manual (LIFE TECHNOLOGIES, MD, USA) and purified using ProBoundresin (Invitrogen Japan, Tokyo, Japan). Human pols δ and ε were purified by the nuclear fractionation of human peripheral blood cancer cells (Molt-4) using the second subunit of pols δ and ε-conjugated affinity column chromatography, respectively. Recombinant human pols η and ι tagged with His6 at their C-terminal were expressed in SF9 insect cells using the baculovirus expression system, and were purified as described previously. A truncated form of pol κ (i.e., hDINB1DC) with 6 x His-tags attached at the C-terminal was overproduced using the BAC-to-BAC Baculovirus Expression System kit (GIBCO BRL, MD, USA) and purified as described previously. Recombinant human His-pol λ was overexpressed and purified according to a method described previously. Fish pol δ was purified from the testis of cherry salmon (Oncorhynchus masou). Pol I (α-like) from a higher plant, cauliflower inflorescence, was purified according to the methods outlined by Sakaguchi et al.. The Klenow fragment of pol I from E. coli was purchased from Worthington Biochemical Corp. (Freehold, NJ, USA). Taq pol, T4 pol, T7 RNA polymerase and T4 polynucleotide kinase were purchased from Takara (Kyoto, Japan). Bovine pancreas deoxyribonuclease I (DNase I) was obtained from Stratagene Cloning Systems (La Jolla, CA, USA).
The reaction mixtures for pol α, pol β, fish pol δ, plant pol I (α-like) and prokaryotic pols were described previously, and those for pol γ, and pols δ and ε were as described by Umeda et al. and Ogawa et al., respectively. The reaction mixtures for pols η, ι and κ were the same as for pol α, and the reaction mixture for pol λ was the same as that for pol β.
For pols, poly(dA)/oligo(dT)12-18 (A/T = 2/1) and dTTP were used as the DNA template-primer and nucleotide (i.e., dNTP) substrate, respectively. KA-A analogues (i.e., compounds 1–12) were dissolved in distilled dimethyl sulfoxide (DMSO) at various concentrations and sonicated for 30 sec. Aliquots of 4 μL of sonicated samples were mixed with 16 μL of each enzyme (final amount 0.05 units) in 50 mM Tris-HCl (pH 7.5) containing 1 mM dithiothreitol, 50% glycerol and 0.1 mM EDTA, and kept at 0 °C for 10 min. […] Activity without the inhibitor was considered 100%, and the remaining activity at each concentration of the inhibitor was determined relative to this value. […]

Question: For CC1=CC[C@H]2C(C)(C)CCC[C@]2(C)[C@H]1CCCCCCCCCCCCCCCCC(=O)O (relative stereo) [compound 11, (1S*,4aS*,8aS*)-17-(1,4,4a,5,6,7,8,8a-octahydro-2,5,5,8a-tetramethylnaphthalen-1-yl)heptadecanoic acid], which “Thermal transition of Tm of dsDNA” value [1] is on record?
Answer: no thermal transition of Tm was observed

Question: What about the IC50 [2] of the same compound?
Answer: > 200 µM

Question: And the IC50 [3]?
Answer: > 200 µM

Question: What about the IC50 (Human DNA polymerase κ) of the same compound?
Answer: 7.2 ± 0.36 µM

Question: And the “Inhibitory effect on pol α compared with KA-A” value (Calf DNA polymerase α; 10 and 100 μM of compound (Figure 2A))?
Answer: strongest inhibitory effect

Question: What about the IC50 (Calf DNA polymerase α; poly(dA)/oligo(dT)12-18 and dTTP, 0.05 units enzyme, read-out: IC50 values) of the same compound?
Answer: 4.21 ± 0.21 µM
